Values of other authors as cited in US9814782B2, “Modified antibody in which motif comprising cysteine residue is bound, modified antibody-drug conjugate comprising the modified antibody, and production method for same” (Alteogen Inc., priority 2012, dated 2017).

Details: known value; read-out: IC50 value in a cell proliferation inhibition assay

## Auristatin
  IC50: 0.2 to 0.3 nM
